Values quoted from earlier work, collected in patent publication US20150147378A1, “COPOLYMER-XEROGEL NANOCOMPOSITES USEFUL FOR DRUG DELIVERY” (RUTGERS, THE STATE UNIVERSITY OF NEW JERSY, priority 2008, published 2015).

octanol/water partition coefficient, log P: 2.72
SMILES: CO[C@H]1/C=C/O[C@@]2(C)Oc3c(C)c(O)c4c(O)c(c(/C=N/N5CCN(C)CC5)c(O)c4c3C2=O)NC(=O)/C(C)=C\C=C\[C@H](C)[C@H](O)[C@@H](C)[C@@H](O)[C@@H](C)[C@H](OC(C)=O)[C@@H]1C [rifampicin]
